What all share (type): biochemical
Assay [1] has as its system human pancreatic trypsin. The assay can be described thus: In vitro enzymatic assay for human trypsin (L-BAPNA, OD405). On the procedure: In Vitro Assay for Human Trypsin
This enzymatic assay was employed to evaluate the ability of the test compounds to inhibit human pancreatic trypsin. IC50 of the test compounds was determined by using KC4A data reduction software (Bio-Tek Instruments) to interpolate percent inhibition from observed Vmax values.
Trypsin assay reactions were performed in a 200 μL mixture containing human pancreatic trypsin at 1 μg/mL in an assay buffer containing 200 mM triethanolamine (TEA), 10 mM calcium chloride, 10% DMSO, pH 7.8. Test compounds dissolved in DMSO were added to trypsin enzyme reactions at varied concentrations, followed by the addition of substrate Nα-Benzoyl-L-Arginine p-Nitroanilide (L-BAPNA) at a final concentration of (0.25 mg/mL). Reactions were incubated for 5 minutes at room temperature prior to measuring the change in OD405 nm for 10 minutes at 21 second intervals with a Powerwave x (Bio-Tek Instruments) microplate reader.

Assay [2] addresses human thrombin (Homo sapiens, UniProt P00734). The assay can be described thus: In vitro colorimetric assay for human thrombin (Nα-Benzoyl-Phe-Val-Arg-p-Nitroanilide, OD405). On the procedure: In Vitro Assay for Human Thrombin
This colorimetric assay was used to assess the ability of the test compounds to inhibit the human thrombin enzyme. IC50 of the test compounds was determined by using KC4A data reduction software (Bio-Tek Instruments) to interpolate percent inhibition from observed Vmax values.
Thrombin assay reactions were performed in a 200 μL mixture containing human thrombin at (1 U/mL) in an assay buffer containing 100 mM HEPES, 10 mM calcium chloride, and 10% DMSO, pH 7.5. Test compounds dissolved in DMSO were added to thrombin enzyme reactions at varied concentrations, followed by the addition of substrate Nα-Benzoyl-Phe-Val-Arg-p-Nitroanilide at a final concentration of 1 mM. Reactions were incubated for 5 minutes at room temperature prior to measuring the change in OD405 nm for 10 minutes at 21 second intervals with a Powerwave x (Bio-Tek Instruments) microplate reader.

Assay [3] has as its target TF/FVIIa (Homo sapiens, UniProt P08709). Put plainly: In vitro amidolytic assay for inhibition of TF/FVIIa (Spectrozyme-FVIIa, pNA absorbance at OD405). On the procedure: In Vitro Assay for Inhibition of TF/FVIIa
To assess the inhibition of the test compounds against the target enzyme, TF/FVIIa, an amidolytic assay based upon the absorbance of p-Nitroanalide (pNA) at OD405 was utilized. The IC50 of the test compounds was determined by using KC4A data reduction software (Bio-Tek Instruments) to interpolate percent inhibition from observed Vmax values.
TF/FVIIa assay reactions were performed in a 200 μL mixture containing 4 nM FVIIa, 10 nM lipidated tissue factor, in an assay buffer containing 100 mM Tris, pH 7.2, 150 mM NaCl, 5 mM calcium chloride, 0.1% bovine serum albumin (BSA), and 10% dimethyl sulfoxide (DMSO). TF and FVIIa were allowed to equilibrate at room temperature for 15 minutes. Test compounds dissolved in DMSO were incubated at varied concentrations with TF/FVIIa for 10 minutes, followed by addition of 500 µM substrate Spectrozyme-FVIIa. Reactions were incubated for 5 minutes at room temperature prior to measuring the change in OD405 run for 10 minutes at 21 second intervals with a Powerwave x (Bio-Tek Instruments) microplate reader.

Experimental findings from US6936719B2, “Biaryl compounds as serine protease inhibitors” (BioCryst Pharmaceuticals, Inc., priority 2001, dated 2005) are described below.

Each structure is given as a SMILES string. Bounds are passed on as bounds.

Chain of TF/FVIIa (P08709 213-466 limits assumed): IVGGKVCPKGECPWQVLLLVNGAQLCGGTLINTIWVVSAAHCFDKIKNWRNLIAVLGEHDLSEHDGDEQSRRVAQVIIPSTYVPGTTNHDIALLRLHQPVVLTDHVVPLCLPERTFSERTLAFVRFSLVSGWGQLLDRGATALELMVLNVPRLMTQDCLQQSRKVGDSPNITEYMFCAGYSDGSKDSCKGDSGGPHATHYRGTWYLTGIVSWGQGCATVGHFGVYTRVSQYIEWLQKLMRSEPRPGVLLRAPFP
Chain of TF/FVIIa (P08709 61-212 limits assumed): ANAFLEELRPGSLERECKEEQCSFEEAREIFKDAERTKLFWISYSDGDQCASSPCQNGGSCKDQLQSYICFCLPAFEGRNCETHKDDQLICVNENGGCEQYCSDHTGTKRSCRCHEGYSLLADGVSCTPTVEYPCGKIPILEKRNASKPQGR
Chain of TF/FVIIa (P13726 33-295 partner): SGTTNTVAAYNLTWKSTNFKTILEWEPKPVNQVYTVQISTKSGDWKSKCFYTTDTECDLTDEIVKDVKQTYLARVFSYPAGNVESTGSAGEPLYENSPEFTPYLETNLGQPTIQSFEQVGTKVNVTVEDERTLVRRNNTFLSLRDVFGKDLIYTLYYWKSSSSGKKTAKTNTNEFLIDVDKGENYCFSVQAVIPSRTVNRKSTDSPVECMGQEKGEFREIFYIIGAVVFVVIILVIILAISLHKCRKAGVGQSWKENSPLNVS

As a reminder, the IC50 is the midpoint of a concentration-inhibition curve. For `CC(C)CNC(=O)c1ccc(-c2ccc(-c3ccncc3)cc2C(=O)Nc2ccc(C(=N)N)cc2)c(C(=O)O)c1`, the IC50 is above 1000 nM in assay [1], above 1000 nM in assay [2] and above 100 nM in assay [3].
On to `CC(C)CNC(=O)c1ccc(-c2ccc(-c3ccc(CO)s3)cc2C(=O)Nc2ccc(C(=N)N)cc2)c(C(=O)O)c1`, for which the IC50 in assay [1] was above 1000 nM; in assay [2] it was above 1000 nM; in assay [3], above 100 nM.
For `CC(C)CNC(=O)c1ccc(-c2ccc(-c3nccs3)cc2C(=O)Nc2ccc(C(=N)N)cc2)c(C(=O)O)c1`, the IC50 is above 1000 nM in assay [1], above 1000 nM in assay [2] and above 100 nM in assay [3].
Compound `CC(C)CNC(=O)c1ccc(-c2ccc(C#CC(C)(C)O)cc2C(=O)Nc2ccc(C(=N)N)cc2)c(C(=O)O)c1` registered an IC50 in assay [3] above 100 nM.
The same measure, in the same setting: in the case of `CC(C)CNC(=O)c1ccc(-c2cc(Oc3ccccc3)ccc2C(=O)Nc2ccc(C(=N)N)cc2)c(C(=O)O)c1` it was above 1000 nM.
In the case of `CC(C)CNC(=O)c1ccc(-c2cc(-c3cccs3)ccc2C(=O)Nc2ccc(C(=N)N)cc2)c(C(=O)O)c1`, the IC50 in assay [3] is above 100 nM.
Regarding `C#CCNC(=O)c1ccc(-c2ccc(-c3ccco3)cc2C(=O)Nc2ccc(C(=N)N)cc2)c(C(=O)O)c1`, the values for the IC50 in assay [1], in assay [2] and in assay [3] were 100 to 1000 nM, above 1000 nM and below 100 nM, respectively.
Take `C=Cc1ccc(-c2ccc(C(=O)NC(CCC)CCC)cc2C(=O)O)c(C(=O)Nc2ccc(C(=N)N)cc2)c1`: the IC50 in assay [1] was 100 to 1000 nM; in assay [2], above 1000 nM; in assay [3], below 100 nM.
For the compound `N=C(N)c1ccc(NC(=O)c2cc(-c3ccco3)ccc2-c2ccc(C(=O)NCCCCCC(=O)O)cc2C(=O)O)cc1`, the IC50 in assay [1] is 100 to 1000 nM; in assay [2], above 1000 nM; in assay [3], below 100 nM.
With `C=Cc1ccc(-c2ccc(C(=O)NCC(C)C)cc2C(=O)O)c(C(=O)Nc2ccc(C(=N)N)cc2)c1`, the IC50 was 100 to 1000 nM in assay [1], above 1000 nM in assay [2] and below 100 nM in assay [3].
